Data: US20040121316A1 (priority 2002, published 2004)
pEC50, pIC50: −log10 of the molar value. Read-outs that look alike come from different tables or passages of the source.

What was measured:
[1] = system: recombinant HIV-1 46I 47V 50V; assay: microbe, parasite or virus in culture; format: cell-based
[2] = system: recombinant HIV-1 48V 54V 71V 82S; assay: microbe, parasite or virus in culture; format: cell-based
[3] = system: recombinant HIV-1 10I 48V 54V 82A; assay: microbe, parasite or virus in culture; format: cell-based
[4] = system: recombinant HIV-1 10I 84V 71V 73S 90M; assay: microbe, parasite or virus in culture; format: cell-based
[5] = system: recombinant HIV-1 30N 50S 82I 88D; assay: microbe, parasite or virus in culture; format: cell-based
[6] = system: recombinant HIV-1 10I 48V 71V 82A 90M; assay: microbe, parasite or virus in culture; format: cell-based
HIV-1 48V54V82A = assay: microbe, parasite or virus in culture; format: cell-based
HIV-1 46I50V = assay: microbe, parasite or virus in culture; format: cell-based
HIV-1 30N82I88D = assay: microbe, parasite or virus in culture; format: cell-based
WT HIV-1 [7] = assay: microbe, parasite or virus in culture; format: cell-based
84V90M HIV protease = 84V90M HIV protease (Human immunodeficiency virus type 1 group M subtype B, UniProt P04585, I572V/L578M); assay: biochemical; set-up: species or system HIV-1
HIV-1 84V90M = assay: microbe, parasite or virus in culture; format: cell-based; settings: Human immunodeficiency virus 1, read-out: Cell-based assay (MT-4) EC50/nM 84V90M
HIV-1 48V82A90M = assay: microbe, parasite or virus in culture; format: cell-based
HIV-1 48V54V82S = assay: microbe, parasite or virus in culture; format: cell-based
WT HIV-1 [8] = assay: microbe, parasite or virus in culture; format: cell-based; remark: listed apart in the source
[9] = system: wild-type HIV-1 strain IIIB; assay: microbe, parasite or virus in culture; format: cell-based; settings: Human immunodeficiency virus 1, IIIB
[10] = system: recombinant HIV-1 strains with resistance mutations in the protease gene; assay: Cross-Resistance Profile Assay, whole panel; format: cell-based; settings: {}
[11] = MT-4 cells, strain printed as 47I50V, read-out: Cell-based assay (MT-4) EC50/nM 47I 50V
[12] = MT-4 cells, strain printed as 48V 54V 82S, read-out: Cell-based assay (MT-4) EC50/nM 48V 54V 82S
[13] = MT-4 cells, strain printed as 48V 54V 82A, read-out: Cell-based assay (MT-4) EC50/nM 48V 54V 82A
[14] = MT-4 cells, strain printed as 30N 82I 88D, read-out: Cell-based assay (MT-4) EC50/nM 30N 82I 88D
[15] = read-out: Cell-based assay (MT-4) EC50/nM 48V 82A 90M, MT-4 cells, strain printed as 48V 82A 90M
[16] = Human immunodeficiency virus 1, read-out: Cell-based assay (MT-4) EC50/nM 48V54V82A
[17] = Human immunodeficiency virus 1, read-out: Cell-based assay (MT-4) EC50/nM 46I50V
[18] = Human immunodeficiency virus 1, read-out: Cell-based assay (MT-4) EC50/nM 30N82I88D
[19] = Human immunodeficiency virus 1, read-out: Cell-based assay (MT-4) EC50/nM WT
[20] = MT-4, 48V54V82A, read-out: Cell-based assay (MT-4) EC50/nM 48V54V82A
[21] = MT-4, 46I50V, read-out: Cell-based assay (MT-4) EC50/nM 46I50V
[22] = read-out: Cell-based assay (MT-4) EC50/nM WT
[23] = MT-4, 48V82A90M, read-out: Cell-based assay (MT-4) EC50/nM 48V82A90M
[24] = MT-4, 30N82I88D, read-out: Cell-based assay (MT-4) EC50/nM 30N82I88D
[25] = MT-4, 48V54V82S, read-out: Cell-based assay (MT-4) EC50/nM 48V54V82S
[26] = Human immunodeficiency virus 1, MT4, read-out: Cell-based assay (MT-4) EC50/nM 47I 50V
[27] = Human immunodeficiency virus 1, MT4, read-out: Cell-based assay (MT-4) EC50/nM 48V 54V 82S
[28] = Human immunodeficiency virus 1, MT4, read-out: Cell-based assay (MT-4) EC50/nM 48V 54V 82A
[29] = Human immunodeficiency virus 1, MT4, read-out: Cell-based assay (MT-4) EC50/nM 84V 90M
[30] = Human immunodeficiency virus 1, MT4, read-out: Cell-based assay (MT-4) EC50/nM 30N 82I 88D
[31] = Human immunodeficiency virus 1, MT4, read-out: Cell-based assay (MT-4) EC50/nM WT
[32] = Human immunodeficiency virus 1, MT4, read-out: Cell-based assay (MT-4) EC50/nM 48V 82A 90M

CCOP(=O)(CCNC(=O)Oc1ccc(CC2C(O)C(O)C(Cc3ccc(OC)cc3)N(Cc3cccc(N)c3)C(=O)N2Cc2cccc(N)c2)cc1)OCC (centres unmarked) [OCH3/Ph-mNH2/OCONH(CH2)2PO3Et2]
EC50 [1, 11]: 184 nM | EC50 [2, 12]: 214 nM | EC50 [3, 13]: 262 nM | EC50 ([4]; read-out: Cell-based assay (MT-4) EC50/nM 84V 90M, MT-4 cells, strain printed as 84V 90M): 2260 nM | EC50 [5, 14]: 77 nM | EC50 [6, 15]: 215 nM

O=C1N(Cc2ccccc2)[C@H](Cc2ccccc2)[C@H](O)[C@@H](O)[C@@H](Cc2ccccc2)N1Cc1ccc2[nH]ncc2c1 [reference compound]
EC50 (HIV-1 48V54V82A; [16]): 705 nM | EC50 (HIV-1 46I50V; [17]): 772 nM | EC50 (HIV-1 30N82I88D; [18]): 281 nM | EC50 (WT HIV-1 [7]; [19]): 193 nM | pIC50 (84V90M HIV protease): 7.36 | EC50 (HIV-1 84V90M): 2310 nM

Nc1n[nH]c2ccc(CN3C(=O)N(Cc4cccc(OCc5ccccc5)c4)C(Cc4ccccc4)C(O)C(O)C3Cc3ccccc3)cc12 (centres unmarked) [m-OBn]
EC50 (HIV-1 48V54V82A; [20]): 709 nM | EC50 (HIV-1 46I50V; [21]): 601 nM | EC50 (WT HIV-1 [7]; [22]): 218 nM

CCOP(=O)(COc1ccc(CC2C(O)C(O)C(Cc3ccc(OC)cc3)N(Cc3ccc(O)cc3)C(=O)N2Cc2ccc(O)cc2)cc1)OCC (centres unmarked) [OCH3, Ph-pOH, OCH2PO3Et2]
EC50 (HIV-1 48V82A90M; [23]): 48 nM | EC50 (HIV-1 48V54V82A; [20]): 67 nM | EC50 (HIV-1 46I50V; [21]): 68 nM | EC50 (HIV-1 30N82I88D; [24]): 23 nM | EC50 (WT HIV-1 [7]; [22]): 29 nM | EC50 (HIV-1 48V54V82S; [25]): 106 nM

Nc1n[nH]c2ccc(CN3C(=O)N(CCCCOCP(=O)(O)O)C(Cc4ccccc4)C(O)C(O)C3Cc3ccccc3)cc12 (centres unmarked) [CH2 OCH2PO3H2]
EC50 (WT HIV-1 [7]; [19]): 1760 nM | pIC50 (84V90M HIV protease): 6.69 | EC50 (HIV-1 84V90M): > 4240 nM

CCOP(=O)(COc1ccc(CC2C(O)C(O)C(Cc3ccccc3)N(Cc3ccccc3)C(=O)N2Cc2ccccc2)cc1)OCC (centres unmarked)
EC50 [1, 11]: 589 nM | EC50 [2, 12]: 1900 nM | EC50 [3, 13]: 1440 nM | EC50 [5, 14]: 293 nM | EC50 (WT HIV-1 [8]; MT-4 cells, WT, read-out: Cell-based assay (MT-4) EC50/nM WT): 107 nM | EC50 [6, 15]: 3290 nM

CCOP(=O)(COc1ccc(CC2C(O)C(O)C(Cc3ccccc3)N(Cc3ccc(O)cc3)C(=O)N2Cc2ccc(O)cc2)cc1)OCC (centres unmarked) [H, Ph-pOH, OCH2PO3Et2]
EC50 (HIV-1 48V82A90M; Human immunodeficiency virus 1, read-out: Cell-based assay (MT-4) EC50/nM 48V82A90M): 126 nM | EC50 (HIV-1 48V54V82A; [16]): 128 nM | EC50 (HIV-1 46I50V; [17]): 144 nM | EC50 (HIV-1 30N82I88D; [18]): 90 nM | EC50 (HIV-1 48V54V82S; Human immunodeficiency virus 1, read-out: Cell-based assay (MT-4) EC50/nM 48V54V82S): 198 nM

CC(C)c1nc(CN(C)C(=O)N[C@H](C(=O)N[C@@H](Cc2ccccc2)C[C@H](O)[C@H](Cc2ccccc2)NC(=O)OCc2cncs2)C(C)C)cs1 [Ritonavir, reference compound]
pEC50 [9]: > 7.30 | Total No. of Resistant Viruses [10]: 10

CCCCN1C(=O)N(Cc2ccc3[nH]nc(N)c3c2)C(Cc2ccccc2)C(O)C(O)C1Cc1ccccc1 (centres unmarked) [DMP-851]
EC50 (HIV-1 48V82A90M; [23]): 22 nM | EC50 (HIV-1 48V54V82A; [20]): 33 nM | EC50 (HIV-1 46I50V; [21]): 17 nM | EC50 (HIV-1 30N82I88D; [24]): 69 nM | EC50 (WT HIV-1 [7]; [22]): 54 nM | EC50 (HIV-1 48V54V82S; [25]): 30 nM

CC(C)(C)NC(=O)[C@@H]1C[C@@H]2CCCC[C@@H]2CN1C[C@@H](O)[C@H](Cc1ccccc1)NC(=O)[C@H](CC(N)=O)NC(=O)c1ccc2ccccc2n1 [Saquinavir, reference compound]
pEC50 [9]: > 7.30 | Total No. of Resistant Viruses [10]: 4

CCOP(=O)(COc1ccc(CC2C(O)C(O)C(Cc3ccc(OC)cc3)N(Cc3ccc(O)cc3)C(=O)N2Cc2ccc(O)cc2)cc1)OCC (centres unmarked) [OCH3/Ph-pOH/OCH2PO3Et2]
EC50 [1, 26]: 90 nM | EC50 [2, 27]: 129 nM | EC50 [3, 28]: 70 nM | EC50 [4, 29]: 148 nM | EC50 [5, 30]: 25 nM | EC50 (WT HIV-1 [8]; [31]): 30 nM | EC50 [6, 32]: 54 nM

CCOP(=O)(COc1ccc(CC2C(O)C(O)C(Cc3ccccc3)N(Cc3cccc(N)c3)C(=O)N2Cc2cccc(N)c2)cc1)OCC (centres unmarked) [H/Ph-mNH2/OCH2PO3Et2]
EC50 [1, 26]: 46 nM | EC50 [2, 27]: 146 nM | EC50 [3, 28]: 168 nM | EC50 [4, 29]: 328 nM | EC50 [5, 30]: 16 nM | EC50 (WT HIV-1 [8]; [31]): 65 nM | EC50 [6, 32]: 74 nM
